Test results: patent US10736863B2, “Methods of inhibiting cataracts and presbyopia” (UNIVERSITY OF MASSACHUSETTS, priority 2015, dated 2020)

Molecular target: T1, human γD-crystallin protein (Homo sapiens, UniProt P07320)
T1 construct: 6xHis (N); made in house; host or cells: E. coli (M15pRep; TAM 1 is also named as an expression line); pQe1 plasmids from the King Labs, MIT
T1 sequence (P07320 1-174): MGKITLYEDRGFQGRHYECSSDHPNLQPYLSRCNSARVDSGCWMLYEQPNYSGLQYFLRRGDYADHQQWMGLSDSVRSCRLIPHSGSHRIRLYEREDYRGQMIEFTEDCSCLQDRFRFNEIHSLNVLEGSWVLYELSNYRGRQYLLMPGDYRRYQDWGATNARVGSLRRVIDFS
Experiment: Dynamic light scattering of γD-crystallin protein modified with CA(PEG)n
Assay type: biochemical
From the text: The γD- and γS-crystallin DNA sequences are in pQe1 plasmids that were provided by the King Labs at Massachusetts Institute of Technology (Cambridge, Mass.). γ-crystallin protein sequences contain a 6×N-terminal histidine tag (his tag) for purification purposes. The plasmids were transformed into a cloning competent cell line to create additional plasmid DNA. Plasmids were subsequently transformed into an expression competent cell line for protein synthesis (TAM 1 E. coli cells (Active Motif. Carlsbad, Calif.)).
γ-crystallin plasmid DNA was chemically transformed into M15pRep E. coli cells for protein synthesis. 1 L cultures were grown for protein purification. γ-crystallin protein was purified by Ni affinity chromatography. The N-terminal His tag contained on the γ-crystallin proteins preferentially binds to the Ni column. The bound protein can be eluted with an imidazole gradient which competitively binds to the Ni, releasing the purified protein. The procedure for purification is briefly (as before): protein is loaded on column, and washed first with 20 mM (0% B), then 35 mM (10% B), then 60 mM (20% B) imidazole. Protein is then eluted at 150 mM (57% B) imidazole. Purity was confirmed by SDS PAGE gel electrophoresis and fast protein liquid chromatography (FPLC).
Chemical Modification Protocol: • 1) A batch of purified protein was buffer exchanged into PBS pH=6.8 using a HiTrap™ desalting column. • (2) Concentration (A280) was measured prior to the addition of CA(PEG)n. • (3) 100 mg of CA(PEG)n was added to a 3-5 ml batch of the above protein. • (4) The mixture was placed on a shaker at 4° C. at 250 RPM overnight.
First a solution of unmodified γD-crystallin protein at a concentration of 0.1 mg/mL was studied by DLS. The measured correlation function g2-1 is plotted against the delay time (lag time) is given for the scattering angle of 30° in FIG. 2. The CONTIN analysis of the weight of various relaxation times is given in FIG. 3 for scattering angles ranging from 30° to 60°. It is clear that there are two populations in the solution, one corresponding to aggregates and the other corresponding to unaggregated protein.

[1] = 0.9 mg/mL of protein and 33 mg/ml of CA(PEG)n
[2] = 0.4 mg/mL of protein and 15 mg/ml of CA(PEG)2
[3] = 0.3 mg/mL of protein and 11 mg/ml of CA(PEG)3

aggregate population of γD-crystallin by dynamic light scattering [1] | size of the unaggregated protein by dynamic light scattering [1] [nm] | SMILES | other results
absent | 2 | NCCOCCC(=O)O [CA(PEG)1] | –
– | – | NCCOCCOCCC(=O)O [CA(PEG)2] | aggregate population of γD-crystallin by dynamic light scattering [2]: absent; size of the unaggregated protein by dynamic light scattering [2]: 2 nm
– | – | NCCOCCOCCOCCC(=O)O [CA(PEG)3] | aggregate population of γD-crystallin by dynamic light scattering [3]: absent; size of the unaggregated protein by dynamic light scattering [3]: 2 nm
absent | 2 | NCCOCCOCCOCCOCCC(=O)O [CA(PEG)4] | –
